Assay results from ChEMBL document CHEMBL1201862, “PubChem BioAssay data set” (2004).
One block for each compound: values may come before it. Active and inactive are the calls of the source.

Assays:
Fatty acid synthase [1] = molecular target: T1, Fatty acid synthase (Homo sapiens, UniProt P49327); test: FAS thioesterase domain inhibitors, dose response, biochemical, endpoint fluorescence intensity, uHTS hits (AID 624327); format: functional;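 note: fluorescence from hydrolysis of an O-methyl fluorescein acyl ester substrate by the enzyme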
Fatty acid synthase [2] = molecular target: T1, Fatty acid synthase; test: FAS thioesterase domain inhibitors, dose response, biochemical, kinetic fluorescence intensity (AID 624326); format: functional;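 note: rate of fluorescence rise from hydrolysis of a fluorogenic O-methyl fluorescein ester substrate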
Protein skinhead-1 = molecular target: T2, Protein skinhead-1 (Caenorhabditis elegans, UniProt P34707); format: functional
T2 sequence (P34707 whole entry): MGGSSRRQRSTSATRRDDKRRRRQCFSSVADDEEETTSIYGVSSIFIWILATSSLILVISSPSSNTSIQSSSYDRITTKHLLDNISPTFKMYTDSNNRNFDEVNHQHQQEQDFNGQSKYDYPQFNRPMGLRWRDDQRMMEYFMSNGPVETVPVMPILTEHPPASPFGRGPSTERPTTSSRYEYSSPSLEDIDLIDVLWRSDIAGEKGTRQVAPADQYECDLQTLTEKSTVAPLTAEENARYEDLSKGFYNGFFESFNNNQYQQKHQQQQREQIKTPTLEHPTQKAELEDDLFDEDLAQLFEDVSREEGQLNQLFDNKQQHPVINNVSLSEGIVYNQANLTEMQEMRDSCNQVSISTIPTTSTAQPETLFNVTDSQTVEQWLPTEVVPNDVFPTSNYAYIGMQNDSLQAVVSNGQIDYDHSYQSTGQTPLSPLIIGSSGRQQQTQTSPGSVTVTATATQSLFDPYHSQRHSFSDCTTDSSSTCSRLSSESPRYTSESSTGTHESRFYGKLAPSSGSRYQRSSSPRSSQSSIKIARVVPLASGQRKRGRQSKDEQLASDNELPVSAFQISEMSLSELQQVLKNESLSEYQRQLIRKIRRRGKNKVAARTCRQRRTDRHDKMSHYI

[3] = molecular target: T3, Polyadenylate-binding protein 1 (Homo sapiens, UniProt P11940); test: PABP1 MLLE–PAM2 interaction inhibitors, dose response, miRNA deadenylation inhibitor project, biochemical, fluorescence polarization, Cy5-PAM2 peptide, secondary (AID 602260); format: functional; settings: read-out: IC50_Mean
[4] = molecular target: T3, Polyadenylate-binding protein 1; test: PABP1 MLLE–PAM2 binding inhibitor potency, dose response, biochemical, fluorescence polarization, FITC-PAM2 peptide (AID 602259); format: functional; settings: read-out: IC50_Mean
[5] = inhibitors of intracellular T. cruzi replication, confirmation, NIH3T3 host cells, beta-gal luminescence (AID 2044); format: functional, cell-based;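 note: intracellular parasites grown in NIH/3T3 mouse fibroblasts as host cells; luminescent beta-galactosidase reporter signal from transgenic T. cruzi replicating inside host cells; inhibitors lower the luminescence signal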
[6] = cytotoxicity toward NIH3T3 fibroblasts, dose response, counter-screen, cell-based, ATP luminescence, mouse fibroblasts (AID 2010); format: functional;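 note: cells exposed to compound for about 90 hours before reading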
[7] = molecular target: T4, Ubiquitin-conjugating enzyme E2 N (Homo sapiens, UniProt P61088); format: functional;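 note: Dose-response confirmation in a TR-FRET assay detecting UBC13-driven polyubiquitin chain formation, inhibition measured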
T4 sequence (P61088 whole entry): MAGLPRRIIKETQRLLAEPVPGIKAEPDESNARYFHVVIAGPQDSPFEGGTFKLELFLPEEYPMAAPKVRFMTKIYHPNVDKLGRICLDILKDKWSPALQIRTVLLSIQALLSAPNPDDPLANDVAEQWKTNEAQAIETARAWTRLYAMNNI

H9c2 = test: cells; format: functional, cell-based; settings: Rattus norvegicus, H9c2, Myocardium;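 note: confirmatory concentration-response retest of ultra-high-throughput screening hits for modulation of myocardial damage; cell death induced by hydrogen peroxide oxidative stress; compound pretreatment for 60 min then peroxide exposure for 2 h; potency is for protecting the cells against peroxide damage rather than for killing them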
[8] = molecular target: T5, Rac GTPase-activating protein 1 (Homo sapiens, UniProt Q9H0H5); test: MgcRacGAP GTPase-activating activity inhibitors, confirmation, biochemical, ADP Hunter fluorescence, primary and confirmatory (AID 624330); format: functional
T5 sequence (Q9H0H5 whole entry): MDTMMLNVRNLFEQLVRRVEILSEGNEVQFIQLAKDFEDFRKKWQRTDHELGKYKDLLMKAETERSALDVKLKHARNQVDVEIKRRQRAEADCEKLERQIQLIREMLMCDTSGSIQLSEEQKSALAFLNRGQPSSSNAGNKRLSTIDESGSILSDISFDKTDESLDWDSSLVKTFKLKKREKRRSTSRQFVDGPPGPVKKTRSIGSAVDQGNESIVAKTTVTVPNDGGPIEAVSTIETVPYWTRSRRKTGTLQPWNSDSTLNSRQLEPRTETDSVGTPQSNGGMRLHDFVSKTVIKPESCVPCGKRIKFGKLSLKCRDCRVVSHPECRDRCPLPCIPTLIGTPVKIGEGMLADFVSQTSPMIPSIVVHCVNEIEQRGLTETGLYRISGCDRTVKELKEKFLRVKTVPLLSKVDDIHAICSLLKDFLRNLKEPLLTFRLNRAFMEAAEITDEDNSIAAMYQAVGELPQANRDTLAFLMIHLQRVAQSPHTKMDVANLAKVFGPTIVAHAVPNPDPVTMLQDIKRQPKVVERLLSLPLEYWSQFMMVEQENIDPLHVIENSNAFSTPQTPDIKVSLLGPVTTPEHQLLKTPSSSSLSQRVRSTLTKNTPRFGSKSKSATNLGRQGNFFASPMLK

T1 sequence (P49327 whole entry, the tested form may be a part): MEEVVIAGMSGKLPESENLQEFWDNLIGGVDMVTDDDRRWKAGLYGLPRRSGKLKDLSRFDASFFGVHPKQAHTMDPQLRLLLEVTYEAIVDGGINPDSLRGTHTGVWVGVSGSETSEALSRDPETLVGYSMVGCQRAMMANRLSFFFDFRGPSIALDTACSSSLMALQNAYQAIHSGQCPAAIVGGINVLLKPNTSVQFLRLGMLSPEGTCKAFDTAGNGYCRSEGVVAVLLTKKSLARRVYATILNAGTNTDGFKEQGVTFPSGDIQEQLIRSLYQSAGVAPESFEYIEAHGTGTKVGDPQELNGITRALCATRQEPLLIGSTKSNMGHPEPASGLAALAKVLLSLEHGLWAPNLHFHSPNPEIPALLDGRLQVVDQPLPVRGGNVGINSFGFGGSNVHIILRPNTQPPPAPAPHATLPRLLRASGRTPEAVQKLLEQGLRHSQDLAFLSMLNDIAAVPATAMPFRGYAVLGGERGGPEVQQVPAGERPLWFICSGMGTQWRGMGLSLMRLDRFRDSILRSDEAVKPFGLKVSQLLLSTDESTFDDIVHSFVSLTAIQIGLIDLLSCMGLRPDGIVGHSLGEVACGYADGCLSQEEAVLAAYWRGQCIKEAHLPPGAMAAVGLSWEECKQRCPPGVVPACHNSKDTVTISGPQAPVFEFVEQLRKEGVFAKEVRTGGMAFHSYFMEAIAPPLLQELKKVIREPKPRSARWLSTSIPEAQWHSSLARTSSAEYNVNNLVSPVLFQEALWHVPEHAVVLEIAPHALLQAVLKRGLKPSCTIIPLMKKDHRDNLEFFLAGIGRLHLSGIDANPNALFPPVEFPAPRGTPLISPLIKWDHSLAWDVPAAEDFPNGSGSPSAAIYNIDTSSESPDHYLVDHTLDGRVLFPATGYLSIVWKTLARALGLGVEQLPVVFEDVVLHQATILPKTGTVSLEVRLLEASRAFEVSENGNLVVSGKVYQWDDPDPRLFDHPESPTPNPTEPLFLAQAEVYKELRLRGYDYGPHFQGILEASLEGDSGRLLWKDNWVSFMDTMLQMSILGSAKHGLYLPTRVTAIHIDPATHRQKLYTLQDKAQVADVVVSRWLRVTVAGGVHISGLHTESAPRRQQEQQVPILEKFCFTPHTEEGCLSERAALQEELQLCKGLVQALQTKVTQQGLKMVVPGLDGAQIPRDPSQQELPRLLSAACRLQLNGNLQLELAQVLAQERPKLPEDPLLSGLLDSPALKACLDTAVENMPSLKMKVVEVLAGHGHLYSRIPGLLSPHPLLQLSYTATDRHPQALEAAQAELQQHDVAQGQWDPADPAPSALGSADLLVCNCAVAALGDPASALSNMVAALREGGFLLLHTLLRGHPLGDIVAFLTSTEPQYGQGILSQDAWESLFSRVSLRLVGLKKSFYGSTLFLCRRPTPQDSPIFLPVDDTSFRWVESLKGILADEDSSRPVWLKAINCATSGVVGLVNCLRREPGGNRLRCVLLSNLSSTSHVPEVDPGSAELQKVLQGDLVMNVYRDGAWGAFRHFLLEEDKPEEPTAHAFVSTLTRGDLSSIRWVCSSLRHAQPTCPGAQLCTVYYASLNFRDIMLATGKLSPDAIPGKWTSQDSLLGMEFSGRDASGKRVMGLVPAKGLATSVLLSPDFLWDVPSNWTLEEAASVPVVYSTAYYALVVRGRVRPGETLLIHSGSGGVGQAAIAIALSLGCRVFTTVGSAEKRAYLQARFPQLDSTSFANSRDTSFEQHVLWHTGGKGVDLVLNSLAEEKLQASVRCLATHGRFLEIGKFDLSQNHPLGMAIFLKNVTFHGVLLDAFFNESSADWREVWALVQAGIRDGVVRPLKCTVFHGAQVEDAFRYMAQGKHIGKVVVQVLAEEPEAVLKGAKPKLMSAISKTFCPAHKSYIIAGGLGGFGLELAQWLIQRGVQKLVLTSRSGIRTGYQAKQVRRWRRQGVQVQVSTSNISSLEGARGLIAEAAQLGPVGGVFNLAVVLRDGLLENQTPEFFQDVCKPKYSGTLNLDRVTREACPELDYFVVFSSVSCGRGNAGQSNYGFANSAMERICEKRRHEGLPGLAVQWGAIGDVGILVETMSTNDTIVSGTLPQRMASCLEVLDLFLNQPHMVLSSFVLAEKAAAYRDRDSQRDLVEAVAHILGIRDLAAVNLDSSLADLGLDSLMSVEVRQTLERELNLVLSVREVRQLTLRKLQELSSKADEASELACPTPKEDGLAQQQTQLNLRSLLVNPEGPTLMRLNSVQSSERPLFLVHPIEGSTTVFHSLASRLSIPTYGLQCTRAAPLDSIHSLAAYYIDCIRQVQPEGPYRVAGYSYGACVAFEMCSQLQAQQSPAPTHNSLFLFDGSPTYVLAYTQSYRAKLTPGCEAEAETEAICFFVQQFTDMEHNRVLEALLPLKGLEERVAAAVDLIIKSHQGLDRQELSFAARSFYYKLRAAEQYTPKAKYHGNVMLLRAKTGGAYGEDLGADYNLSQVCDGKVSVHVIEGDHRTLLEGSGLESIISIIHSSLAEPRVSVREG
T3 sequence (P11940 whole entry): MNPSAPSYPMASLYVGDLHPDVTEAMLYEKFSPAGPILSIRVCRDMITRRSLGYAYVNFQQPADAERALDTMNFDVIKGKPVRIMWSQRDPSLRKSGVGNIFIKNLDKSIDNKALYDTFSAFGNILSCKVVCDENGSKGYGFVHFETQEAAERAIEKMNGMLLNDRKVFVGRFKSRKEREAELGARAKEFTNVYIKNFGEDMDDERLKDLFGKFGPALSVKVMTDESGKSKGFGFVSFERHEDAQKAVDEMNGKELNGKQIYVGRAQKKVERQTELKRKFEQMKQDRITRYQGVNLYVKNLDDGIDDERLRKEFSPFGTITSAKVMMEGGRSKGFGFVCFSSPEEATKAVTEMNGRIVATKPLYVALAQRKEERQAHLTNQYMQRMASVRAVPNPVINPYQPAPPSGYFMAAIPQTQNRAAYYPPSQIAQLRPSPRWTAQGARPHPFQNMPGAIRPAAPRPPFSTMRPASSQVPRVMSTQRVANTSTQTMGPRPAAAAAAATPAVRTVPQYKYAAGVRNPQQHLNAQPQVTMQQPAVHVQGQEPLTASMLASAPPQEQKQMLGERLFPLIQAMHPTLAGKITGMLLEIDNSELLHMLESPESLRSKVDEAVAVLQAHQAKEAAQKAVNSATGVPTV

IC50 (Fatty acid synthase [1]): 2.11 µM (active)
IC50 (Fatty acid synthase [2]): 3.55 µM (active)
Compound: COc1ccc(-c2nnc(SCC(=O)Nc3ncc(C(F)(F)F)cc3Cl)n2CC(C)C)cc1

IC50 (Protein skinhead-1): > 100 µM (inactive)
Compound: CCCc1cc(C(=O)Nc2ccc(Cl)cn2)cs1

IC50 (Fatty acid synthase [1]): 1.25 µM (active)
IC50 (Fatty acid synthase [2]): 0.778 µM (active)
Compound: O=C(CC1C[C@H](C(=O)N2CCOCC2)[C@@]2(CCC3CCCC3)c3[nH]c4ccccc4c3CCN2C1=O)NCc1ccco1 (some centres undefined)

IC50 (Protein skinhead-1): > 100 µM (inactive)
Compound: COc1cc2[nH]c(=S)n(CCN3CCCCC3C)c(=O)c2cc1OC (centres undefined)

IC50 (Fatty acid synthase [1]): 7.65 µM (active)
IC50 (Fatty acid synthase [2]): 9.44 µM (active)
Compound: O=C(CSc1ncnc2c1cnn2-c1ccccc1)NC1CCS(=O)(=O)C1 (centres undefined)

IC50 (Protein skinhead-1): > 100 µM (inactive)
Compound: COc1ccc(NS(=O)(=O)c2cccc(-c3nnc(-c4ccccc4)o3)c2)cc1

IC50 [3]: > 66 µM (inactive)
IC50 [4]: > 66 µM (inactive)
Compound: COCCOC(=O)C1=C(C)NC(=O)NC1c1c(Cl)nc2ccccn2c1=O (centres undefined)

Compound: CCN(CC)CCNC(=O)c1cc2c(s1)-c1ccccc1SC2
EC50 [5]: 2.27 µM (active)
EC50 [6]: 7.38 µM (active)
IC50 [7]: > 20 µM (inactive)

IC50 (Fatty acid synthase [1]): 13.6 µM (active)
IC50 (Fatty acid synthase [2]): 30.9 µM (inactive)
Compound: COC(=O)c1cc(C(=O)OCC(=O)c2ccc3c(c2)NC(=O)CO3)cc([N+](=O)[O-])c1

IC50 (Fatty acid synthase [1]): 2.12 µM (active)
IC50 (Fatty acid synthase [2]): 4.82 µM (active)
Compound: CN(C)CCCNC(=O)CC1C[C@H](C(=O)N2CCOCC2)[C@@]2(CCC3CCCC3)c3[nH]c4ccccc4c3CCN2C1=O (some centres undefined)

IC50 [3]: > 66 µM (inactive)
IC50 [4]: > 66 µM (inactive)
Compound: COc1ccc(OC)c(S(=O)(=O)N2CCCCC2C(=O)N2CCN(c3ccccn3)CC2)c1 (centres undefined)

Compound: Cc1ccc(-c2csc(N3CCC[C@@H]3C(=O)NCCn3c(-c4ccncc4)nc4ccccc43)n2)cc1
IC50 (H9c2): > 79 µM (inactive)

Compound: O=c1c2ccccc2oc2nc(-c3ccco3)n(Cc3ccccc3)c(=O)c12
IC50 (H9c2): > 79 µM (inactive)

IC50 [7]: > 20 µM (inactive)
Compound: CCC[C@@H](CN1CCC[C@H]1CN1C(N)=NC[C@@H]1Cc1ccccc1)N1C[C@@H](Cc2ccccc2)N(CCc2ccc(Cl)c(Cl)c2)C1=N

IC50 [3]: > 66 µM (inactive)
IC50 [4]: > 66 µM (inactive)
Compound: CC1(C(=O)NC(=S)N(CCC#N)c2ccccc2)CC1(Cl)Cl (centres undefined)

IC50 (Protein skinhead-1): > 100 µM (inactive)
Compound: COCCn1c(CCC(=O)O)nc2c1c(=O)[nH]c(=O)n2CC(C)C

Compound: O=C(COc1cccc2c1CCNC2=O)Nc1ccc(F)cc1
IC50 (H9c2): 37.2 µM (inactive)

IC50 (Protein skinhead-1): > 100 µM (inactive)
IC50 [8]: 74.3 µM (active)
Compound: Nn1c(=S)[nH]c2sc3c(c2c1=O)CCCC3

IC50 (Fatty acid synthase [1]): 6.12 µM (active)
IC50 (Fatty acid synthase [2]): 7.21 µM (active)
Compound: O=C(NC1CCCCC1)N(c1ccccc1)c1nnc(-c2cccc([N+](=O)[O-])c2)s1

IC50 [3]: > 66 µM (inactive)
IC50 [4]: > 66 µM (inactive)
Compound: CC(=O)Nc1ccc(NC(=S)NC(=O)c2ccc([N+](=O)[O-])cc2)cc1

Compound: O=C(NCC(=O)N(Cc1cccs1)C(C(=O)NC1CCCC1)c1ccco1)c1cccs1 (centres undefined)
IC50 (H9c2): > 79 µM (inactive)
